Measurements as given in the supplement of paper PMC10307832.

Experiments:
Assay in all cases: relative viability (nuclei count vs DMSO), 5 days (fraction); higher = more cells survive
NCI-H1650 = test system: NCI-H1650
Summary of the method: (§1)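 One day after seeding in 1536-well plates, lung cancer cell lines were dosed by pin tool. Dosing was either single-drug or a fixed anchor-drug dose plus five library-drug doses (not always all listed) in √10 steps. After 5 days, nuclei were stained in one fix-and-stain step and counted on 4× images, and relative viability is the nuclei count of treated wells over that of vehicle wells, given as the median of duplicate plates.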

NCI-H441 = test system: NCI-H441
Summary of the method: as §1

NCI-H1355 = test system: NCI-H1355
Summary of the method: as §1

NCI-H460 = test system: NCI-H460
Summary of the method: as §1

EKVX = test system: EKVX
Summary of the method: as §1

NCI-H1395 = test system: NCI-H1395
Summary of the method: as §1

NCI-H1437 = test system: NCI-H1437
Summary of the method: as §1

NCI-H1563 = test system: NCI-H1563
Summary of the method: as §1

NCI-H838 = test system: NCI-H838
Summary of the method: as §1

NCI-H1755 = test system: NCI-H1755
Summary of the method: as §1

NCI-H2085 = test system: NCI-H2085
Summary of the method: as §1

NCI-H1975 = test system: NCI-H1975
Summary of the method: as §1

LOU-NH91 = test system: LOU-NH91
Summary of the method: as §1

CAL-12T = test system: CAL-12T
Summary of the method: as §1

NCI-H2342 = test system: NCI-H2342
Summary of the method: as §1

NCI-H2023 = test system: NCI-H2023
Summary of the method: as §1

BEN = test system: BEN
Summary of the method: as §1

NCI-H358 = test system: NCI-H358
Summary of the method: as §1

NCI-H1734 = test system: NCI-H1734
Summary of the method: as §1

LU99A = test system: LU99A
Summary of the method: as §1

NCI-H1651 = test system: NCI-H1651
Summary of the method: as §1

HCC-366 = test system: HCC-366
Summary of the method: as §1

NC(=O)Nc1cc(-c2cccc(F)c2)sc1C(=O)N[C@H]1CCCNC1 [AZD7762] + COc1cc2c(Oc3ccc(NC(=O)C4(C(=O)Nc5ccc(F)cc5)CC4)cc3F)ccnc2cc1OCCCN1CCOCC1 [Foretinib] (partner 0.25 µM)
relative viability (NCI-H1650; first compound 0.01 µM): 1.25 | relative viability (NCI-H1650; first compound 0.03162 µM): 0.931 | relative viability (NCI-H1650; first compound 0.1 µM): 1.14 | relative viability (NCI-H1650; first compound 0.3162 µM): 0.804 | relative viability (NCI-H1650; first compound 1 µM): 0.24 | relative viability (NCI-H441; first compound 0.01 µM): 1.3 | relative viability (NCI-H441; first compound 0.03162 µM): 1.07 | relative viability (NCI-H441; first compound 0.1 µM): 1.11 | relative viability (NCI-H441; first compound 0.3162 µM): 1.19 | relative viability (NCI-H441; first compound 1 µM): 0.955 | relative viability (NCI-H1355; first compound 0.01 µM): 0.964 | relative viability (NCI-H1355; first compound 0.03162 µM): 0.975 | relative viability (NCI-H1355; first compound 0.1 µM): 0.967 | relative viability (NCI-H1355; first compound 0.3162 µM): 1.02 | relative viability (NCI-H1355; first compound 1 µM): 0.995 | relative viability (NCI-H460; first compound 0.01 µM): 1.12 | relative viability (NCI-H460; first compound 0.03162 µM): 1 | relative viability (NCI-H460; first compound 0.1 µM): 1.01 | relative viability (NCI-H460; first compound 0.3162 µM): 0.964 | relative viability (NCI-H460; first compound 1 µM): 0.176 | relative viability (EKVX; first compound 0.01 µM): 0.64 | relative viability (EKVX; first compound 0.03162 µM): 0.741 | relative viability (EKVX; first compound 0.1 µM): 0.956 | relative viability (EKVX; first compound 0.3162 µM): 0.387 | relative viability (EKVX; first compound 1 µM): 0.522 | relative viability (NCI-H1395; first compound 0.01 µM): 0.974 | relative viability (NCI-H1395; first compound 0.03162 µM): 1.08 | relative viability (NCI-H1395; first compound 0.1 µM): 1.1 | relative viability (NCI-H1395; first compound 0.3162 µM): 0.91 | relative viability (NCI-H1395; first compound 1 µM): 0.452 | relative viability (NCI-H1437; first compound 0.01 µM): 1.27 | relative viability (NCI-H1437; first compound 0.03162 µM): 1.31 | relative viability (NCI-H1437; first compound 0.1 µM): 1.24 | relative viability (NCI-H1437; first compound 0.3162 µM): 1.02 | relative viability (NCI-H1437; first compound 1 µM): 1.13 | relative viability (NCI-H1563; first compound 0.01 µM): 1.04 | relative viability (NCI-H1563; first compound 0.03162 µM): 0.967 | relative viability (NCI-H1563; first compound 0.1 µM): 0.974 | relative viability (NCI-H1563; first compound 0.3162 µM): 0.94 | relative viability (NCI-H1563; first compound 1 µM): 0.83 | relative viability (NCI-H838; first compound 0.01 µM): 1.1 | relative viability (NCI-H838; first compound 0.03162 µM): 1.07 | relative viability (NCI-H838; first compound 0.1 µM): 1.04 | relative viability (NCI-H838; first compound 0.3162 µM): 0.992 | relative viability (NCI-H838; first compound 1 µM): 0.553 | relative viability (NCI-H1755; first compound 0.01 µM): 0.908 | relative viability (NCI-H1755; first compound 0.03162 µM): 0.96 | relative viability (NCI-H1755; first compound 0.1 µM): 0.921 | relative viability (NCI-H1755; first compound 0.3162 µM): 0.918 | relative viability (NCI-H1755; first compound 1 µM): 0.473 | relative viability (NCI-H2085; first compound 0.01 µM): 0.946 | relative viability (NCI-H2085; first compound 0.03162 µM): 0.938 | relative viability (NCI-H2085; first compound 0.1 µM): 0.865 | relative viability (NCI-H2085; first compound 0.3162 µM): 1.21 | relative viability (NCI-H2085; first compound 1 µM): 0.697 | relative viability (NCI-H1975; first compound 0.01 µM): 0.926 | relative viability (NCI-H1975; first compound 0.03162 µM): 0.943 | relative viability (NCI-H1975; first compound 0.1 µM): 0.964 | relative viability (NCI-H1975; first compound 0.3162 µM): 0.854 | relative viability (NCI-H1975; first compound 1 µM): 0.624 | relative viability (LOU-NH91; first compound 0.01 µM): 0.925 | relative viability (LOU-NH91; first compound 0.03162 µM): 0.947 | relative viability (LOU-NH91; first compound 0.1 µM): 0.96 | relative viability (LOU-NH91; first compound 0.3162 µM): 0.93 | relative viability (LOU-NH91; first compound 1 µM): 0.737 | relative viability (CAL-12T; first compound 0.01 µM): 1.34 | relative viability (CAL-12T; first compound 0.03162 µM): 1.01 | relative viability (CAL-12T; first compound 0.1 µM): 1.13 | relative viability (CAL-12T; first compound 0.3162 µM): 0.874 | relative viability (CAL-12T; first compound 1 µM): 0.217 | relative viability (NCI-H2342; first compound 0.01 µM): 0.992 | relative viability (NCI-H2342; first compound 0.03162 µM): 1.14 | relative viability (NCI-H2342; first compound 0.1 µM): 1.09 | relative viability (NCI-H2342; first compound 0.3162 µM): 1.1 | relative viability (NCI-H2342; first compound 1 µM): 1.25 | relative viability (NCI-H2023; first compound 0.01 µM): 0.788 | relative viability (NCI-H2023; first compound 0.03162 µM): 0.529 | relative viability (NCI-H2023; first compound 0.1 µM): 0.652 | relative viability (NCI-H2023; first compound 0.3162 µM): 0.393 | relative viability (NCI-H2023; first compound 1 µM): 0.098 | relative viability (BEN; first compound 0.01 µM): 0.714 | relative viability (BEN; first compound 0.03162 µM): 0.747 | relative viability (BEN; first compound 0.1 µM): 0.621 | relative viability (BEN; first compound 0.3162 µM): 0.507 | relative viability (BEN; first compound 1 µM): 0.596 | relative viability (NCI-H358; first compound 0.01 µM): 0.532 | relative viability (NCI-H358; first compound 0.03162 µM): 0.76 | relative viability (NCI-H358; first compound 0.1 µM): 0.628 | relative viability (NCI-H358; first compound 0.3162 µM): 0.647 | relative viability (NCI-H358; first compound 1 µM): 0.378 | relative viability (NCI-H1734; first compound 0.01 µM): 0.979 | relative viability (NCI-H1734; first compound 0.03162 µM): 0.97 | relative viability (NCI-H1734; first compound 0.1 µM): 0.929 | relative viability (NCI-H1734; first compound 0.3162 µM): 0.807 | relative viability (NCI-H1734; first compound 1 µM): 0.436 | relative viability (LU99A; first compound 0.01 µM): 0.798 | relative viability (LU99A; first compound 0.03162 µM): 0.828 | relative viability (LU99A; first compound 0.1 µM): 0.791 | relative viability (LU99A; first compound 0.3162 µM): 0.822 | relative viability (LU99A; first compound 1 µM): 0.537 | relative viability (NCI-H1651; first compound 0.01 µM): 0.912 | relative viability (NCI-H1651; first compound 0.03162 µM): 0.785 | relative viability (NCI-H1651; first compound 0.1 µM): 0.693 | relative viability (NCI-H1651; first compound 0.3162 µM): 0.573 | relative viability (NCI-H1651; first compound 1 µM): 0.186 | relative viability (HCC-366; first compound 0.01 µM): 0.954 | relative viability (HCC-366; first compound 0.03162 µM): 0.927 | relative viability (HCC-366; first compound 0.1 µM): 0.978 | relative viability (HCC-366; first compound 0.3162 µM): 0.973 | relative viability (HCC-366; first compound 1 µM): 0.312
